Reference: ChEMBL document CHEMBL3044762, “Design, Synthesis and Evaluation of Trisubstituted Thiazoles Targeting Plasmodium Falciparum Cysteine Proteases” (Med Chem Res, 2005)

Experiments:
Leishmania donovani = experiment: Antileishmanial activity against Leishmania donovani promastigotes after 72 hr by alamar blue assay; format: functional, organism-based
Plasmodium falciparum [1] = experiment: Antimalarial activity against Plasmodium falciparum D6 at EC50 after 72 hr by LDH assay; format: functional; set-up: concentration or dose not given beside the values
Plasmodium falciparum [2] = experiment: Antimalarial activity against Plasmodium falciparum W2 after 72 hr by LDH assay; format: functional, organism-based; conditions: W2, 72 h
Vero [3] = experiment: (§1) Cytotoxicity against Chlorocebus aethiops (African green monkey) Vero cells by Neutral Red assay; format: cell-based; conditions: chlorocebus sabaeus, vero
Plasmodium falciparum [4] = experiment: Antimalarial activity against Plasmodium falciparum D6 after 72 hr by LDH assay; format: functional, organism-based; conditions: D6, 72 h
Plasmodium falciparum [5] = experiment: Antimalarial activity against Plasmodium falciparum W2 […] after 72 hr by LDH assay; format: functional
Falcipain-3 = Falcipain-3 (Plasmodium falciparum, UniProt Q8IIL0); experiment: Inhibition of recombinant Plasmodium falciparum falcipain-3 using Z-Leu-Arg-AMC as substrate compound treated for 30 min before substrate addition by fluorescence assay
Falcipain-3, sequence (Q8IIL0 whole entry, looked up): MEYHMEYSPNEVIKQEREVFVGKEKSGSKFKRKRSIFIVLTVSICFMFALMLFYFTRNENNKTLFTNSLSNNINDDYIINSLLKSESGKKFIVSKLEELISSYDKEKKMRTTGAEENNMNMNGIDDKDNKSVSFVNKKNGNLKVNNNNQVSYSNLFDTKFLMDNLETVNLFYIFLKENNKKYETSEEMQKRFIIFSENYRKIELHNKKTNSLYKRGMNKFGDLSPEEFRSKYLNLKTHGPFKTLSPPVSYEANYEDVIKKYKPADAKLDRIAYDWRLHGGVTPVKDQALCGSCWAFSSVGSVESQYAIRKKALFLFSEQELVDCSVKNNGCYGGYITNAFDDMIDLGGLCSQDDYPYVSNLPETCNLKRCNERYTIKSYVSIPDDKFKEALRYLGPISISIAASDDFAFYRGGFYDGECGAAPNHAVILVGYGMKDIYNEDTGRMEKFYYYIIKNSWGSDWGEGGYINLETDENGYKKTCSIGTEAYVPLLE

[6] = as §1; format: cell-based; conditions: chlorocebus sabaeus, Vero cells; read-out: TD50 (the source's name)
Falcipain 2 = target: T1, Falcipain 2 (Plasmodium falciparum, UniProt Q9N6S8); experiment: Inhibition of recombinant Plasmodium falciparum falcipain-2 using Z-Leu-Arg-AMC as substrate compound treated for 30 min before substrate addition by fluorescence assay
T1 sequence (Q9N6S8 whole entry): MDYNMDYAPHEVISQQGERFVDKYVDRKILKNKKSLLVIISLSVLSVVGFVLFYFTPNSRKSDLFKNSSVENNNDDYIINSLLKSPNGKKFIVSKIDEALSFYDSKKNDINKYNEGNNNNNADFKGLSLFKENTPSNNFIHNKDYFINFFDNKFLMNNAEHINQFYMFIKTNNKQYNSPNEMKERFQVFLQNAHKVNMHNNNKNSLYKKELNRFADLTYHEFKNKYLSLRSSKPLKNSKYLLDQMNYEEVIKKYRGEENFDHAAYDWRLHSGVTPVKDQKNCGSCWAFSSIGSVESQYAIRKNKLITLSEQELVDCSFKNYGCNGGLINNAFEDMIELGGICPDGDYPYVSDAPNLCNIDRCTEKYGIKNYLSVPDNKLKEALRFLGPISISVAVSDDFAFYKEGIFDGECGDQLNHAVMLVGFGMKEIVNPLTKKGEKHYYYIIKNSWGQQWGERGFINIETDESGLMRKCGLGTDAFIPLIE

Vero [7] = experiment: Cytotoxicity against Chlorocebus aethiops (African green monkey) Vero cells at TD50 by Neutral Red assay; format: cell-based; conditions: chlorocebus sabaeus

SMILES	EC50 (Leishmania donovani) [µM]	inhibition (INH) (Plasmodium falciparum [1]) [%]	EC50 (Plasmodium falciparum [2]) [µM]	TD50 (Vero [3])	EC50 (Plasmodium falciparum [4]) [µM]	inhibition (INH) (Plasmodium falciparum [5]) [%]	IC50 (Falcipain-3) [µM]	CC50 [6] [µM]	IC50 (Falcipain 2) [µM]	Activity (Vero [7]) [%]
Nc1nc(CCc2ccccc2)c(CCCO)s1	> 152	37	> 90.7	Non-toxic	> 90.7	26	–	–	–	–
O=C(/C=C/c1nc(CCc2ccccc2)c(CCCO)s1)CSCCCc1ccccc1	4.5	–	13.8	–	35.4	–	29.4	> 51.1	< 6.6	–
O=C(CCc1nc(CCc2ccccc2)c(CCCO)s1)CSCCCc1ccccc1	16.3	–	19.1	–	20.3	–	> 50	40.6	> 12.5	–
O=CCCc1sc(CCC(=O)CSCCCc2ccccc2)nc1CCc1ccccc1	8.2	45	> 51.1	Non-toxic	> 51.1	26	> 50	–	39.1	–
NC(=O)CCc1sc(CCC(=O)CSCCCc2ccccc2)nc1CCc1ccccc1	41.6	42	> 49.5	–	> 49.5	43	> 50	> 49.5	> 33	38
CC(=O)NCCCc1sc(CCC(=O)CSCCCc2ccccc2)nc1CCc1ccccc1	39.3	–	16.8	Non-toxic	32.4	–	> 50	–	> 33	–
CCOC(=O)CCc1sc(NC(=O)CSCCCc2ccccc2)nc1/C=C/c1ccccc1	50.5	–	20.2	Non-toxic	28.3	–	–	–	–	–
NC(=O)CCc1sc(NC(=O)CSCCCc2ccccc2)nc1/C=C/c1ccccc1	47.2	45	> 51.1	Non-toxic	> 51.1	26	55.2	–	15.3	–
O=C(CCc1nc(CO)c(CCc2ccccc2)s1)CSCCCc1ccccc1	–	–	> 20	–	–	–	> 50	–	> 12.5	–
CC(=O)OCc1nc(CCC(=O)CSCCCc2ccccc2)sc1CCc1ccccc1	29.1	–	24.9	Non-toxic	30.5	–	> 50	–	> 33	–
C[C@@H]1[C@H](O)[C@@H](C)/C=C/C=C/C=C/C=C/C=C/C=C/C=C/[C@H](O[C@@H]2O[C@H](C)[C@@H](O)[C@H](N)[C@@H]2O)C[C@@H]2O[C@](O)(C[C@@H](O)C[C@@H](O)[C@H](O)CC[C@@H](O)C[C@@H](O)CC(=O)O[C@H]1C)C[C@H](O)[C@H]2C(=O)O [AMPHOTERICIN B]	0.2	–	–	–	–	–	–	–	–	–
C[C@@H]1CC[C@H]2[C@@H](C)C(=O)O[C@@H]3O[C@@]4(C)CC[C@@H]1[C@]32OO4 [ARTEMISININ]	–	–	0.023	–	0.025	–	–	–	–	–
CCN(CC)CCCC(C)Nc1ccnc2cc(Cl)ccc12 (stereo not drawn) [CHLOROQUINE]	–	–	0.359	–	0.059	–	–	–	–	–
N=C(N)c1ccc(OCCCCCOc2ccc(C(=N)N)cc2)cc1 [PENTAMIDINE]	5	–	–	–	–	–	–	–	–	–
